Key:
[1] = test system: PD-iPSC and control iPSC derived cells; assay: Cell viability assay with alamar-blue, dose response for toxin challenge; assay type: cell-based, human; conditions: 48 hrs, 5 and 10 uM, day 60
From the text: (§1) Note: this assay tests for overall cell death while the most dramatic effects were observed specifically in DA neurons (see FIG. 14). Therefore, alamar blue based quantification will likely underestimate the extent of the differential effect observed on DA neuron lineages.
as §1, with “Exemplary quantification of cell viability—dose response assay for toxin challenge. […] Note:” for “Note:”
as §1, with “Exemplary quantification of cell viability-dose response assay for toxin challenge. […] Note:” for “Note:”

[2] = test system: control-iPSC derived TH+ DA neurons; assay: Toxin challenge, TH immunocytochemistry; assay type: cell-based, human; conditions: 5 uM, 48 hr, floor-plate protocol, day 60
Method: (§2) PD-iPSC derived TH+ DA neurons derived via the floor-plate based protocols of the present inventions were more vulnerable to toxin challenge (valinomycin: mitochondria ionophore, 5 uM, 48 hr) than control-iPSC derived cells. […] G-H) low power images of immunocytochemistry for Tuj1 (red) and TH (green) by floor-plate based protocol at day 60 of differentiation: PD-iPSC of normal (G), versus toxin challenge (H) conditions and control iPSC of normal (I), versus toxin challenge (J) conditions. K-N) low power images of immunocytochemistry for Tuj1 (red) and TH (green) by MS5 based protocol at day 60 of differentiation: PD-iPSC of normal (K), versus toxin challenge (L) conditions and control iPSC of normal (M), versus toxin challenge (N) conditions.
(§3) E. DA neurons derived from genetic PD-iPS cells are more vulnerable to toxic stimulation. FIG. 24-25. PD-iPSC derived TH+DA neurons derived via floor-plate based protocol were more vulnerable to toxin challenge (valinomycin: mitochondria ionophore, 5 uM (ranging in concentration from 1-10 uM), 48 hr) than control-iPSC derived cells. […] Normal condition both of PD- and control-iPSC derived cultures obtained via MS5 based protocol (D, PD-iPSC derived cells shown), TH+ neurons following toxin challenge in PD-iPSC (E), and control-iPSC derived cultures (F) obtained via MS5 protocol. G-H) low power images of immunocytochemistry for Tuj1 (red) and TH (green) by floor-plate based protocol at day 60 of differentiation: PD-iPSC of normal (G), versus toxin challenge (H) conditions and control iPSC of normal (I), versus toxin challenge (J) conditions. K-N) low power images of immunocytochemistry for Tuj1 (red) and TH (green) by MS5 based protocol at day 60 of differentiation: PD-iPSC of normal (K), versus toxin challenge (L) conditions and control iPSC of normal (M), versus toxin challenge (N) conditions. F.
(§4) Exemplary DA neurons derived from PINK1 mutant PD-iPSC are more vulnerable to toxic stimulation. […]

[3] = test system: PINK1 mutant PD-iPSC derived TH+ DA neurons; assay: Toxin challenge, TH immunocytochemistry; assay type: cell-based, human
Method: as §2, §3, §4

rosette stage cells = assay: Rosette-based DA neuron induction culture; assay type: cell-based, human; conditions: concentration suitable for patterning floor plate cells
From the text: Both protocols used dual-SMAD inhibition to accelerate neural fate acquisition. LDN was used for BMP inhibition in the floor plate protocol while the traditional noggin induction was used for rosette cultures. The abbreviations are: LDN: LDN-193189, SB: SB431542, SHH (purmorphamine+SHH C25II), FGF8: FGF8, BAGCT: BDNF+ascorbic acid+GDNF+dbcAMP+TGFβ3. SHH/FGF8 in the rosette protocol used SHH C25I alone in the absence of purmorphamine following the initial recommendation for patterning of rosette-derived DA neuron cultures. […] BASF: BDNF+ascorbic acid+SHH/FGF8.
For rosette-based DA neuron induction previously described protocols were followed in part (Perrier, et al. Proc Natl Acad Sci USA 101:12543-8 (2004), herein incoropoated by reference) with at least one exception where dual-SMAD inhibition was used to accelerate the initial neural induction step. In brief, hESCs were induced towards neural fate by coculture with irradiated MS5 cells in KSR supplemented with SB431542 and Noggin (250 ng/ml (ranging in concentration from 10-1000 ng/ml); R&D), from day 2-8 and SHH+FGF8 from day 6-11 of differentiation. After 11 days in KSR, neural rosettes were manually isolated and cultured (P1 stage) in N2 medium supplemented with SHH, FGF8, BDNF and AA as described previously (Perrier, et al. Proc Natl Acad Sci USA 101:12543-8 (2004), herein incorporated by reference). […]

hESC = assay: Immunocytochemistry, percentage of marker positive cells in differentiating cultures; assay type: cell-based, human
Method: (§5) Immunohistochemistry: Cells were fixed in 4% PFA and blocked with 1% bovine serum albumin (BSA) with 0.3% Triton. Brain tissue sections were washed in cold PBS and processed similarly. Primary antibodies were diluted in 1-5% BSA or Normal Goat Serum and incubated according to manufacturer recommendations. A comprehensive list of antibodies and sources is provided as Table 6. Appropriate Alexa488, Alexa555 and Alexa647-conjugated secondary antibodies (Molecular Probes, Carlsbad, California) were used with 4′,6-diamidino-2-phenylindole (DAPI) nuclear counterstain (Thermo Fisher, Rockford, Illinois). For some analyses biotinylated secondary antibodies were used followed by visualization via DAB (3,3′-Diaminobenzidine) chromogen.
Cell Counts and Stereological Analyses. The percentages of marker positive cells at the floor plate (day 11) FIG. 1, midbrain dopamine neuron precursor (day 25), FIG. 2 and mature DA neuron stages (day 50 or later) FIGS. 3 and 11, were determined in samples derived from at least 3 independent experiments each. Images for quantification were selected in a uniform random manner and each image was scored first for the number of DAPI-positive nuclei, followed by counting the number of cells expressing the marker of interest. Data are presented as mean±SEM. Quantification of human cells (identified with anti-hNA) and TH+ neurons within grafts was performed on every tenth section where a graft was identifiable. Cell counts and graft volume was determined using the optical fractionator's probe and the Cavalieri estimator using the Stereo Investigator software (MBF bioscience, Vermont) as described previously in Tabar, et al. Nat. Biotechnol. 23:601-606 (2005), herein incorporated by reference. Data are presented as estimated total cell number and total graft volume+/−standard error of means (SEM).
as §5, with “chromogen. HPLC” for “chromogen.”
Analysis. Reversed-phase HPLC with electrochemical detection for measuring levels of dopamine, Homovanillic acid (HVA) and DOPAC (3,4-Dihydroxy-Phenylacetic Acid) was performed as described previously (Roy, et al. Nature Med. 12:1259-1268 (2006); Studer, et al. Brain Res. Bull. 41:143-150 (1996), all of which are herein incorporated by reference). Culture samples were collected in perchloric acid at day 65 of differentiation. For some experiments DA was measured directly in the medium using the same detection system but following aluminum extraction of dopamine and its metabolites using a commercially available kit as described previously (Studer, et al. Brain Res. Bull. 41:143-150 (1996), herein incorporated by reference). […]

rodent GSK3β homologs = conditions: cited from earlier work

With `CC(C)[C@@H]1NC(=O)[C@H](C)OC(=O)[C@@H](C(C)C)NC(=O)[C@@H](C(C)C)OC(=O)[C@H](C(C)C)NC(=O)[C@H](C)OC(=O)[C@@H](C(C)C)NC(=O)[C@@H](C(C)C)OC(=O)[C@H](C(C)C)NC(=O)[C@H](C)OC(=O)[C@@H](C(C)C)NC(=O)[C@@H](C(C)C)OC1=O` [valinomycin] the “cell survival PD-iPSC versus control iPSC” value [1] was “differential cell survival”, the “degeneration of TH+ DA neurons” value [2] was “partially degenerated” and the “degeneration of TH+ DA neurons” value ([3]; 5 uM, 48 hr, floor-plate protocol, day 60) was “nearly complete degeneration”. For the same molecule, the “vulnerability of PD- versus control-derived TH+ neurons” value ([3]; classic MS5 based protocol) was “did not show differential vulnerability”.

In the case of `c1ccc2c(Oc3nc(Nc4ccc(N5CCOCC5)cc4)c4ncn(C5CCCCC5)c4n3)cccc2c1` [Purmorphamine], the “toxicity at rosette stage” value (rosette stage cells) is reported as “shows toxicity”.

In the case of `Cc1c[nH]c(-c2cnc(NCCNc3ccc(C#N)cn3)nc2-c2ccc(Cl)cc2Cl)n1` [CHIR99021, 6-(2-(4-(2,4-dichlorophenyl)-5-(4-methyl-1H-imidazol-2-yl)pyrimidin-2-ylamino)ethylamino)nicotinonitrile], the “potency at inducing LMX1A expression compared with recombinant Wnt3A or Wnt1” value (hESC) is reported as “more potent”, the “timing of exposure giving maximum LMX1A induction” value (hESC) is reported as “day 3-11” and the “LMX1A induction in FOXA2+ floor plate precursors” value (hESC; day 11) is reported as “induced LMX1A”. The “co-expression of FOXA2/LMX1A” value (hESC; day 11) was “induced co-expression” and the “IC50 against rodent GSK3β homologs” value (rodent GSK3β homologs) was “nanomolar”.

B1: FGF8: Fibroblast growth factor 8 (protein, UniProt P55075 23-233, looked up)
Fibroblast growth factor 8: QEGPGRGPALGRELASLFRAGREPQGVSQQHVREQSLVTDQLSRRLIRTYQLYSRTSGKHVQVLANKRINAMAEDGDPFAKLIVETDTFGSRVRVRGAETGLYICMNKKGKLIAKSNGKGKDCVFTEIVLENNYTALQNAKYEGWYMAFTRKGRPRKGSKTRQHQREVHFMKRLPRGHHTTEQSLRFEFLNYPPFTRSLRGSQRTWAPEPR
For B1, the “co-expression of FOXA2/LMX1A” value (hESC; day 11) was “only marginal effects”.

Source: patent US11970712B2, “Midbrain dopamine (DA) neurons for engraftment” (MEMORIAL SLOAN-KETTERING CANCER CENTER, priority 2011, dated 2024)
